Measurements published in patent publication US20110046147A1, “17BETA-HYDROXYSTEROID DEHYDROGENASE TYPE 1 INHIBITORS FOR THE TREATMENT OF HORMONE-RELATED DISEASES” (UNIVERSITAT DES SAARLANDES, priority 2007, published 2011).
Like-named read-outs stand apart in the source and are kept apart here.

Columns and labels:
[1] = target: T1, CYP2D6 (Homo sapiens, UniProt P10635); assay: Inhibition of hepatic CYP enzymes: CYP2D6; format: biochemical; conditions: read-out: CYP2D6 IC50 (mean ± SD)
T1 construct: purchased Becton Dickinson GmbH (Heidelberg)
Text: (§1) Drug interactions (inhibition of hepatic CYP enzymes): The inhibition of six human hepatic cytochrome P450 enzymes by selected compounds was examined by means of the kit supplied by Becton Dickinson GmbH (Heidelberg).

[2] = target: T2, CYP2B6 (Homo sapiens, UniProt P20813); assay: Inhibition of hepatic CYP enzymes: CYP2B6; format: biochemical; conditions: read-out: CYP2B6 IC50 (mean ± SD)
T2 construct: purchased Becton Dickinson GmbH (Heidelberg)
T2 sequence (P20813 1-491): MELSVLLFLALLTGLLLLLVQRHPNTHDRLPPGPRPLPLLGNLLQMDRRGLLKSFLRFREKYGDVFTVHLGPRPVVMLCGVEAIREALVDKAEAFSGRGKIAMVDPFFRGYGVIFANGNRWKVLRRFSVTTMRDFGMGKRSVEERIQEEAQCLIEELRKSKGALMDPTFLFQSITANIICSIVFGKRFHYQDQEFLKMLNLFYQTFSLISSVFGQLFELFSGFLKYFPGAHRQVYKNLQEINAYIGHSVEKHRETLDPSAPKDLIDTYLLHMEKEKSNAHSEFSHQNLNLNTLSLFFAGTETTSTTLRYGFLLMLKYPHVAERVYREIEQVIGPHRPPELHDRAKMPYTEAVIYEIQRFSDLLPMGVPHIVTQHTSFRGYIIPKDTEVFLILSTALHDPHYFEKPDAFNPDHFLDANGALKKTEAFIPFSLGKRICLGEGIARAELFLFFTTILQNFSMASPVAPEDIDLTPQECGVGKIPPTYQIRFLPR
Text: as §1

[3] = target: T3, 17β-HSD1 (Homo sapiens, UniProt P14061); assay: Inhibition of 17β-HSD1 (estrone to estradiol, radio-HPLC); format: biochemical; conditions: for IC50: human placenta enzyme, 500 nM estrone, NADH 500 μM
T3 construct: In both cases, human placenta served as the enzyme source; from tissue; host or cells: human placenta
T3 sequence (P14061 1-328): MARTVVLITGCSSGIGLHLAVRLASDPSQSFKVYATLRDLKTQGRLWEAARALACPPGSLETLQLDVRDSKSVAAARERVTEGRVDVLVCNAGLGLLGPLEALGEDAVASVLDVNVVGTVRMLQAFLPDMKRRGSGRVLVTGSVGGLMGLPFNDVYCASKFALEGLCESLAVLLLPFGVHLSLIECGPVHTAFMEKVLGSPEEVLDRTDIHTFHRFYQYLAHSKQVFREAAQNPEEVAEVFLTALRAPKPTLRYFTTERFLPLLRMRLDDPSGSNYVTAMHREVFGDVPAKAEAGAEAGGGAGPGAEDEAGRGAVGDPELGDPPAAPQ
Protocol: In the 17β-HSD1 test, NADH is employed as a cosubstrate at a final concentration of 500 μM in order to avoid the product inhibition occurring with NADPH. The enzyme preparation is diluted with test buffer to such an extent that the control conversion is 10 to maximally 20% (about 1:650). As the substrate, estrone in a final concentration of 500 nM is used, of which 3 nM is tritiated. 2,4,6,7-[^3H]estrone is purchased from Perkin-Elmer, Boston. The inhibitor is added as a solution in DMSO (control: pure DMSO without inhibitor; the final concentration of DMSO in the assay is 1% in all cases).
(§2) After the reaction, the substrate and product are extracted by partitioning with ether, separated by chromatography (HPLC) and quantified by means of radiodetection.

[4] = target: T4, CYP2C19 (Homo sapiens, UniProt P33261); assay: Inhibition of hepatic CYP enzymes: CYP2C19; format: biochemical
T4 construct: purchased Becton Dickinson GmbH (Heidelberg)
Text: as §1

[5] = target: T5, 17β-HSD2 (Homo sapiens, UniProt P37059); assay: Inhibition of 17β-HSD2 (estradiol to estrone, radio-HPLC); format: biochemical; conditions: human placenta microsome fraction, 500 nM estradiol, NAD+ 1500 μM
T5 construct: from tissue; host or cells: human placenta, microsome fraction
T5 sequence (P37059 1-387): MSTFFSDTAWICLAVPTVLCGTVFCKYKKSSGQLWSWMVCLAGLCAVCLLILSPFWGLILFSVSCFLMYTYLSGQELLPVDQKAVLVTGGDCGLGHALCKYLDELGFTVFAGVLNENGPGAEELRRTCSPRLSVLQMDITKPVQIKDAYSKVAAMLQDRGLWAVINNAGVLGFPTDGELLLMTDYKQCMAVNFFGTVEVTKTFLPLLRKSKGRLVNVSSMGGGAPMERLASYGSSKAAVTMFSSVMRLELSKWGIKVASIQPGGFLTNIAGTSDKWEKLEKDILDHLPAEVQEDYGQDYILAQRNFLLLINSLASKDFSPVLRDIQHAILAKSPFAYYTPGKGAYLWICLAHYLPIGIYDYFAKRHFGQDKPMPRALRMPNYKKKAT
Protocol: Determination of the inhibitory activity of the potential inhibitors: Inhibition of 17β-HSD1 and 17β-HSD2: In both cases, human placenta served as the enzyme source (Lin, S.-X. et al., J. Biol. Chem., 267: 16182-16187 (1992)).
In the 17β-HSD2 test, the natural cosubstrate NAD^+ is employed at a final concentration of 1500 μM. The microsome fraction is diluted in test buffer, so that a control conversion of 20 to 30% results (about 1:350). As the substrate, estradiol in a final concentration of 500 nM is used, of which 3 nM is tritiated. 2,4,6,7-[^3H]estradiol is also purchased from Perkin-Elmer, Boston. The inhibitor is added as a solution in DMSO (control: pure DMSO without inhibitor; the final concentration of DMSO in the assay is […]). After the addition of the substrate, incubation is performed at 37° C. for 20 minutes. The reaction is quenched by the addition of HgCl2 (final concentration of HgCl2: 0.166 mM).
as §2

[6] = target: T6, CYP1A2 (Homo sapiens, UniProt P05177); assay: Inhibition of hepatic CYP enzymes: CYP1A2; format: biochemical; conditions: read-out: CYP1A2 IC50 (mean ± SD)
T6 construct: purchased Becton Dickinson GmbH (Heidelberg)
T6 sequence (P05177 1-516): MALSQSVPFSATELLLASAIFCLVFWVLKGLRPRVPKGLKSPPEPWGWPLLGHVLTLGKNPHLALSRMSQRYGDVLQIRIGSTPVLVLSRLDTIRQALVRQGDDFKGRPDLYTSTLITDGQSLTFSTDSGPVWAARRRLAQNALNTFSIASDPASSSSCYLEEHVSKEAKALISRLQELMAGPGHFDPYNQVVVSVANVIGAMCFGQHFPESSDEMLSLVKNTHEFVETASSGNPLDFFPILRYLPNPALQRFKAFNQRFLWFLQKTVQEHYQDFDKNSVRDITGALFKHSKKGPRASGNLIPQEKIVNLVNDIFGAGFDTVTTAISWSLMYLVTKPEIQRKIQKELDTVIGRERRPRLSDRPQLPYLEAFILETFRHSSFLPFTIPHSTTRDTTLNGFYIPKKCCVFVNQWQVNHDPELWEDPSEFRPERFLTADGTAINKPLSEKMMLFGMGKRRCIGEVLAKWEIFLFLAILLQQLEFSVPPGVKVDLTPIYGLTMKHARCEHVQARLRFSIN
Text: as §1

[7] = target: T7, estrogen receptor α (Homo sapiens, UniProt P03372); assay: Affinity for the estrogen receptor α (RBA); format: binding; conditions: data not stated
T7 sequence (P03372 1-595): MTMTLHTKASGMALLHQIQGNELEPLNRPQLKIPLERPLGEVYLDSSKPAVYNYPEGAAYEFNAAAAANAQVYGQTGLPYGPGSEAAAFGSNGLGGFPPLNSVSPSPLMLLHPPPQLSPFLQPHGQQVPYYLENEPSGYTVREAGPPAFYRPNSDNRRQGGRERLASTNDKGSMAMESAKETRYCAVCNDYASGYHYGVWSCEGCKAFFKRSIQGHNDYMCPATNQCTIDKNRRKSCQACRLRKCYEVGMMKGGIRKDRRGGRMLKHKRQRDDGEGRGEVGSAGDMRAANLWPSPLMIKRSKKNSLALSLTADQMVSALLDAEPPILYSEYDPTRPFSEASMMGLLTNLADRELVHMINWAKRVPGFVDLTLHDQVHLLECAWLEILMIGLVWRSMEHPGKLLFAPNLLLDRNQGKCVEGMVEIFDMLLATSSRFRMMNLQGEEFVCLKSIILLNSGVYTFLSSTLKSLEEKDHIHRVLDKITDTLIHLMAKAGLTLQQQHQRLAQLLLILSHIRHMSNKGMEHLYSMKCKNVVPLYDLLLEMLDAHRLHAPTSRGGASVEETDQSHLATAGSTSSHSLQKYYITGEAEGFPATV
Protocol: Slight changes were made: The respective inhibitor was incubated at RT for 2 h with shaking.
The receptor affinities are established as RBA (relative binding affinity) values. The RBA value of the reference estradiol is set to 100%.

[8] = test system: estrogen receptor; conditions: cited from earlier work
[9] = test system: CaCo-2 cells; assay: CaCo2 transport assay; format: in vitro ADME; conditions: 50 μM in donor compartment
Protocol: Performance of selected compounds in a CaCo2 assay: Caco-2 cell culture and transport experiments were performed according to Yee (Yee, S., Pharm. Res., 14(6): 763-766 (1997)), but slight modifications were introduced. The cultivation times were reduced from 21 to 10 days by increasing the sowing density from 6.3·10^4 to 1.65·10^5 cells per well. […] The initial concentration of the compounds in the donor compartment was 50 μM (in buffer with 1% ethanol or DMSO). Samples were taken from the acceptor side after 60, 120 and 180 min and from the donor side after 0 and 180 min. For glycoprotein P (P-gp) studies, bidirectional experiments were performed. The absorptive and secretory permeabilities (Papp (a-b) and Papp (b-a)) were determined. Thus, erythromycin was used as a substrate, and verapamil was used as an inhibitor of P-gp. Each experiment was performed in triplicate. The integrity of the monolayer was determined by means of TEER (transepithelial electric resistance) and the permeability for each assay was determined using Lucifer Yellow. All samples of the CaCo-2 transport experiments were analyzed by means of LC/MS/MS after dilution with buffer (1:1 with 2% acetic acid). The apparent permeability coefficient (Papp) was calculated by means of the formula given below, where dQ/dt represents the recovery rate of the mass in the acceptor compartment, A represents the surface area of the transwell membrane, and c0 represents the initial concentration in the donor compartment.

T4 sequence (P33261 whole entry): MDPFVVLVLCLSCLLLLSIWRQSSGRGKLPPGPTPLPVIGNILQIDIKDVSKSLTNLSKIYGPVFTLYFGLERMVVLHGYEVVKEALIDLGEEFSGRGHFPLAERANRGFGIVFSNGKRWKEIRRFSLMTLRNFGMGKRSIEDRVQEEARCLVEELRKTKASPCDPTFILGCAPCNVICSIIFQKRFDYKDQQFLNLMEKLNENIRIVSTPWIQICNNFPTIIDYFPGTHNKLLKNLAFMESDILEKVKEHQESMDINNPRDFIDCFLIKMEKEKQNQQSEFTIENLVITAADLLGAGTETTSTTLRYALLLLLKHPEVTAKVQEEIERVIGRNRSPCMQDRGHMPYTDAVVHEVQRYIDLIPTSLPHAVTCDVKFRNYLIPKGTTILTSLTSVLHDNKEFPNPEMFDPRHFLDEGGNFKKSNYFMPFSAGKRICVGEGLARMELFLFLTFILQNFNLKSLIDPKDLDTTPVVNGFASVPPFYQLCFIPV
T1 sequence (P10635 whole entry): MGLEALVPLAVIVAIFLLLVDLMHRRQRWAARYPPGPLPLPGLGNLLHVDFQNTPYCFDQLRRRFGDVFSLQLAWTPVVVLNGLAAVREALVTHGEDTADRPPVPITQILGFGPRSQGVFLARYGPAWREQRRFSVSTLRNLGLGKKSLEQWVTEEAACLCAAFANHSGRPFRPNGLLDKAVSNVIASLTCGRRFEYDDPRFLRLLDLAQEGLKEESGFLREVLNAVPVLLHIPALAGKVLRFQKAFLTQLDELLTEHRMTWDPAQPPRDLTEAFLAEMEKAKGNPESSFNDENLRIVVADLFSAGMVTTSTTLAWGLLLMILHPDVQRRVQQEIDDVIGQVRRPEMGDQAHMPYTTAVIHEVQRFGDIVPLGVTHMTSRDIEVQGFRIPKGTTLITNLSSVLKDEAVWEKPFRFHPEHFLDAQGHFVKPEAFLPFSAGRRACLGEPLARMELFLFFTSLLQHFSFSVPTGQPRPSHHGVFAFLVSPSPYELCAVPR

SMILES: Oc1cccc(-c2cnc(-c3cccc(O)c3)s2)c1 [Compound 22, 3,3′-(1,3-thiazole-2,5-diyl)diphenol]
- IC50 [1]: 7.76 ± 0.03 µM
- IC50 [2]: 14.2 ± 0.44 µM
- IC50 [3]: 0.28 µM
- IC50 ([4]; read-out: CYP2C19 IC50 (mean ± SD)): 4.57 ± 0.05 µM
- IC50 [5]: 2.5 µM
- IC50 [6]: 4.92 ± 0.09 µM

SMILES: Oc1ccc(-c2csc(-c3cccc(O)c3)n2)cc1 [Compound 23, 3-[4-(4-Hydroxyphenyl)-1,3-thiazole-2-yl]phenol]
- affinity for the estrogen receptor (in words) [7]: negligible
- IC50 [3]: 0.32 µM

SMILES: Oc1ccc(-c2nc(-c3cccc(O)c3)cs2)cc1 [Compound 24, 3-[2-(4-Hydroxyphenyl)-1,3-thiazole-4-yl]phenol]
- affinity for the estrogen receptor (in words) [7]: negligible
- inhibition at 1 µM ([3]; read-out: inhibition of 17β-HSD1 at 1 μM): 49%

SMILES: Oc1ccc(-c2csc(-c3ccc(O)cc3)n2)cc1 [Compound 25, 4,4′-(1,3-Thiazole-2,4-diyl)diphenol]
- RBA (%) (Katzenellenbogen patent) [8]: 0.018%
- inhibition of 17β-HSD1 (in words) [3]: no activity
- Inhibition of 17β-HSD1, IC50 (nM) ([3]; Table 6, isomeric bis(hydroxyphenyl)-1,3-thiazoles): no inhibition

SMILES: Oc1cccc(-c2csc(-c3cccc(O)c3)n2)c1 [Compound 26, 3,3′-(1,3-Thiazole-2,4-diyl)diphenol]
- affinity for the estrogen receptor (in words) [7]: negligible
- IC50 [3]: 0.41 µM
- Selectivity IC50 (17β-HSD2)/IC50 (17β-HSD1) ([3]; ratio of IC50 values): 5.4
- IC50 [5]: 2.22 µM

SMILES: Oc1ccc(-c2cc(-c3cccc(O)c3)cs2)cc1 [Compound 32, 3-[5-(4-Hydroxyphenyl)-3-thienyl]phenol]
- Permeability (class in words) [9]: high
- IC50 [3]: 0.13 µM
- IC50 [4]: 4.43 ± 0.17 µM
- IC50 [5]: 1.7 µM
- IC50 [6]: 8.68 ± 0.29 µM
